# Test results reported in publication PMC10975012, “The Active Glucuronide Metabolite of the Brain Protectant IMM-H004 with Poor Blood–Brain Barrier Permeability Demonstrates a High Partition in the Rat Brain via Multiple Mechanisms” (Pharmaceutics, 2024).
# Tests used:
# [1] = Uptake kinetics in hCMEC/D3 cells; type: cell-based, human; details: human, hCMEC/D3 cells, 2–400 μmol/L, 10 min
# Procedure: (§1) Uptake assays into hCMEC/D3 cells were conducted in 24-well plates. All incubations were carried out at 37 °C in triplicate unless otherwise noted. In time-dependent uptake studies, hCMEC/D3 cells were incubated with IMM-H004 (10 µmol/L) and IMM-H004G (50 µmol/L) dissolved in HBSS under gentle shaking for up to 30 min. To investigate the impact of incubation temperature on the uptake of IMM-H004 and IMM-H004G by hCMEC/D3 cells, incubation was performed at 4 or 37 °C for 10 min. To determine the kinetic parameters, the cells were incubated with IMM-H004 and IMM-H004G (2–400 µmol/L) for 10 min. The uptake data were fitted to the following equation using nonlinear least-square regression analysis in GraphPad Prism 9 (GraphPad, San Diego, CA, USA):(1) V=Vmax×S/Km+S+Kns×S where V is the uptake velocity (nmol/mg protein/min), and S is the initial concentration (μmol/L). Vmax, Km, and Kns represent the maximum uptake velocity (nmol/mg protein/min), the Michaelis–Menten constant (μmol/L), and nonsaturable uptake clearance (μL/mg protein/min), respectively. The saturable uptake of both IMM-H004 and IMM-H004G was plotted with the Eadie–Hofstee method by subtracting passive uptake from the total uptake.
# hCMEC/D3 cells = assay: Uptake kinetics in hCMEC/D3 cells; type: cell-based, human; details: for reduction of uptake at 4 °C compared to 37 °C: 10 μmol/L; for reduction of uptake at 4 °C compared to 37 °C / Kns, passive diffusion rate / Vmax/Km ratio, transporter-mediated uptake: 10 min; for Kns, passive diffusion rate / Vmax/Km ratio, transporter-mediated uptake: 2–400 μmol/L
# Procedure: as §1
# [2] = test system: pyrilamine-sensitive H^+/OC antiporter; assay: Identification of transporters using inhibitors in hCMEC/D3 cells: H+/OC antiporter; type: cell-based, human; details: substrate 10 μmol/L; for reduction of uptake by quinidine: quinidine 100 μmol/L; for reduction of uptake by verapamil: verapamil 100 μmol/L
# Procedure: (§2) The toxicity of all compounds, including inhibitors and substrates, toward hCMEC/D3 cells, was assessed using the 3-(4,5-Dimethylthiazol-2-yl)-2,5-diphenyltetrazolium bromide (MTT) reduction assay as described previously. To assess the effects of pyrilamine-sensitive proton-coupled organic cation (H^+/OC) antiporter, organic anion transporter (OAT), organic anion-transporting polypeptides (OATPs), organic cation transporter (OCT), and novel organic cation–carnitine transporter (OCTN) inhibitors on the uptake process, IMM-H004 or IMM-H004G (10 µmol/L) combined with the inhibitors were added to the medium after preincubating the cells with the inhibitors for 30 min. For evaluating the impact of the multidrug and toxin extrusion transporter (MATE), P-glycoprotein (P-gp), multidrug resistance protein (MRP), and breast cancer resistance protein (BCRP) on the uptake, IMM-H004 or IMM-H004G (10 µmol/L) was preincubated with the cells for 2 h before the addition of the inhibitors. After removing the supernatant, the cells were washed twice with prewarmed HBSS and incubated with fresh HBSS for 20 min. At the end of incubation, the supernatants were collected. The cells were washed with cold HBSS and lysed using RIPA buffer. The protein content of the lysed cells was determined using a bicinchoninic acid (BCA) assay kit (Beyotime Inc., Shanghai, China). The results were expressed as a percentage of the vehicle control.
# P-gp = target: T1, P-gp (Homo sapiens, UniProt P08183); assay: Identification of transporters using inhibitors in hCMEC/D3 cells: P-gp; type: cell-based; details: substrate 10 μmol/L, PSC833 5 μmol/L
# T1 construct: host or cells: hCMEC/D3
# Procedure: as §2, with “The cells were washed with cold HBSS and lysed using RIPA buffer.” left out
# [3] = test system: OAT, OCT, OCTN, BCRP, and MRP; assay: Identification of transporters using inhibitors in hCMEC/D3 cells: other transporters; type: cell-based, human; details: substrate 10 μmol/L
# Procedure: as §2, with “The cells were washed with cold HBSS and lysed using RIPA buffer.” left out
# In situ brain perfusion = type: in vivo, rat; details: 10 μmol/L
# Procedure: The rat brain was perfused following a previously described method. Briefly, the common carotid arteries on both sides were cannulated and connected to the perfusion system, while the external carotid artery was ligated. At the beginning of perfusion, the jugular veins on both sides were quickly incised. The perfusion procedure consisted of a preperfusion wash with saline for 1 min, followed by drug infusion (2 µmol/L IMM-H004 or IMM-H004G) for 2, 5, and 10 min, and concluded with a postperfusion wash (saline for 5 min) at a rate of 4.0 mL/min. To examine the impact of P-gp (PSC833, 5 µmol/L) and OATP (rifamycin SV, 100 µmol/L) on BBB transport, the perfusate containing the inhibitor was perfused for 1 min, and then the mixture of IMM-H004 or IMM-H004G (10 µmol/L) and the inhibitor was perfused for 10 min. Following the perfusion, the rats were decapitated, and their brains were homogenized (1:3, w/v) in chilled saline. The concentrations of IMM-H004 and IMM-H004G were then determined by LC-MS/MS.
# The unidirectional transfer constant Kin (mL/min/g) was calculated using the following equation:(4) Kin=Qbr/Cpf[…] where Qbr/Cpf is the apparent brain distribution volume, Qbr is the measured amount of compound in brain tissue, Cpf is the concentration of compound in the perfusate, and T is the perfusion time.
# [4] = Pharmacokinetics in rats with cerebral microdialysis; type: in vivo; details: rat; for Kp: brain (cerebral cortex microdialysate) and plasma, read-out: Kp (AUCbrain/AUCplasma); for peak brain concentration: free concentration (microdialysis); for AUCbrain / concentration at 2 min / AUC: free concentration; for concentration at 2 min / AUC: plasma (free concentration); for AUC: read-out: AUCplasma
# Procedure: Rats were anesthetized with isoflurane. Microdialysis intracerebral guide cannulas and CMA 12 Elite Probe (PAES membrane with a MWCO of 20 kDa, 2 mm membrane length (CMA/Microdialysis AB, Stockholm, Sweden)) were implanted into the cerebral cortex at the coordinates relative to bregma: medial/lateral = 3.0 mm; anterior/posterior = 0.5 mm; dorsal/ventral = −3.0 mm. After a 24 h recovery period, the intracerebral probe was connected to the microdialysis cannula, and Ringer’s solution was perfused at a flow rate of 2.0 μL/min. Then, IMM-H004 citrate or IMM-H004G (10 mg/kg) was injected intravenously (iv). Dialysate samples were collected every 5 to 60 min for a duration of 7 h. The probe recovery in vitro was determined by dialyzing a standard mixture of IMM-H004 (50 ng/mL) and IMM-H004G (300 ng/mL) infused with Ringer’s solution.
# Blood samples were collected from the orbital plexus into heparinized tubes and subsequently centrifuged to separate the plasma. The concentrations of IMM-H004 and IMM-H004G in both the dialysate and plasma samples were determined using LC-MS/MS analysis. Subsequently, the free concentrations in the brain and plasma were corrected with probe recovery and fu for further analysis, respectively. The pharmacokinetic parameters were calculated via noncompartmental analysis (NCA) using Phoenix WinNonlin 6.3 (Pharsight Corporation, Sunnyvale, CA, USA). The brain–plasma partition coefficient (Kp) was determined as the ratio of the area under the concentration–time curve for the brain (AUCbrain) to that of the plasma (AUCplasma).
# [5] = cited from earlier work
# [6] = after iv IMM-H004 citrate 10 mg/kg
# T1 sequence (P08183 whole entry): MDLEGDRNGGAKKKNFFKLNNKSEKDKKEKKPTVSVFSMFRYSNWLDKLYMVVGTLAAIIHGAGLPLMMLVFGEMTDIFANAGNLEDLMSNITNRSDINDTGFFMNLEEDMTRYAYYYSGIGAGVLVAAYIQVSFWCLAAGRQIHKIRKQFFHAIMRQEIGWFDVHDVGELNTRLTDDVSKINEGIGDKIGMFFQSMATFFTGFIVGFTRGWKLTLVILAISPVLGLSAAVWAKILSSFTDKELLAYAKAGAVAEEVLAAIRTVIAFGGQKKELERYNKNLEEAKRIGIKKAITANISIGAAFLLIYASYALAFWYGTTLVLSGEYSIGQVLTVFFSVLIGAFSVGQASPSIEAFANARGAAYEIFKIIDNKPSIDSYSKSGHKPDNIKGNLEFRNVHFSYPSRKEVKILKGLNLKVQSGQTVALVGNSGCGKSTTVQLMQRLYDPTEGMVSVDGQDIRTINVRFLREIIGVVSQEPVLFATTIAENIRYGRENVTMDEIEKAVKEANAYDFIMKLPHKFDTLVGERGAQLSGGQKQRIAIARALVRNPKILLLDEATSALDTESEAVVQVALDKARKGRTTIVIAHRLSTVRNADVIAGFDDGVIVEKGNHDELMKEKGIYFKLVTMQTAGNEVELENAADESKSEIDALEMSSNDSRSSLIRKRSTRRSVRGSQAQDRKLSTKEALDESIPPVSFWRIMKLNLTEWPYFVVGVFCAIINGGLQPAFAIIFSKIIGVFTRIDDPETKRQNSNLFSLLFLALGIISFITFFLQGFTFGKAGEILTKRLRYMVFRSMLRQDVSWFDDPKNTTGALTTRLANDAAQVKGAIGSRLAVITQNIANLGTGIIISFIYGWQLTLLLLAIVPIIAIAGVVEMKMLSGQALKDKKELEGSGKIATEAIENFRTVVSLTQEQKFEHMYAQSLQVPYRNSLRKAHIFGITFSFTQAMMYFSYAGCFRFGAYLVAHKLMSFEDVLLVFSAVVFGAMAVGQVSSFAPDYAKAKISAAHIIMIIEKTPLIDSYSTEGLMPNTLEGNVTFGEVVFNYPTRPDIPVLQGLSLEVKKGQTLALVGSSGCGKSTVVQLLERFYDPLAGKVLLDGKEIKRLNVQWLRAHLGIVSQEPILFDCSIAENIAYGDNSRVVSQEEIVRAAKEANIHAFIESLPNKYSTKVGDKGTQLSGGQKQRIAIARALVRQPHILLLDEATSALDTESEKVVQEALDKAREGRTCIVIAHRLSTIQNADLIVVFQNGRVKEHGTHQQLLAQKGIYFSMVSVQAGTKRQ
SMILES,Km at 10 min [1],reduction of uptake at 4 °C compared to 37 °C (hCMEC/D3 cells),"Kns, passive diffusion rate (hCMEC/D3 cells)","Vmax/Km ratio, transporter-mediated uptake (hCMEC/D3 cells)",reduction of uptake by quinidine [2],reduction of uptake by verapamil [2],uptake with P-gp inhibitor PSC833 relative to control (P-gp),"effect of inhibitors of OAT, OCT, OCTN, BCRP, and MRP on uptake [3]","Kp [4, 6]",peak brain concentration ([4]; after iv IMM-H004G 10 mg/kg),AUCbrain ([4]; after iv IMM-H004G 10 mg/kg),"AUCbrain [4, 6]",concentration at 2 min ([4]; after iv IMM-H004G 10 mg/kg),"AUC [4, 6]",other results
COc1cc(OC2OC(C(=O)O)C(O)C(O)C2O)cc2oc(=O)c(N3CCN(C)CC3)c(C)c12 (stereo not drawn) [IMM-H004G],10.7 µM,70.6%,0.100 μL/min/mg protein,1.50 μL/min/mg protein,not affected,not affected,without affecting,No significant impact,0.06,1712 nmol/L,1.923 µM·h,1.053 µM·h,40.2 µM,16.4 µM·h,"change in Kin value with OATP inhibitor (In situ brain perfusion; rifamycin SV 100 μmol/L, 10 min perfusion, rat): no significant change; AUCbrain relative to that of IMM-H004 [4, 6]: 5.4 times; AUCplasma relative to that of IMM-H004 [4, 6]: 116 times; brain exposure relative to the parent drug ([5]; rats): six times higher"
COc1cc(O)cc2oc(=O)c(N3CCN(C)CC3)c(C)c12 [IMM-H004],89.5 µM,57.1%,0.877 μL/min/mg protein,18.8 μL/min/mg protein,57.7%,61.5%,1.3 times that of the control,No significant impact,1.39,35.1 nmol/L,0.0938 µM·h,0.196 µM·h,0.0398 µM,0.141 µM·h,"Kns relative to that of IMM-H004G (hCMEC/D3 cells): 8.77 times; increase in Kin value with P-gp inhibitor PSC833 compared to control (In situ brain perfusion; PSC833 5 μmol/L, 10 min perfusion, rat): 4.3 times; Kin value relative to that of IMM-H004G (In situ brain perfusion; in situ rat brain perfusion): 18 times higher; elimination half-life ([5]; rat plasma and brain tissues, intravenous dosing): < 1 h"
